Experiments:
[1] = tested on: HPAC cells; experiment: Wound healing assay, HPAC cells; assay type: cell-based, human; conditions: approximate 24 hours
Description: The inhibitory effects on cell migration by LLL12B in pancreatic cancer cells was also examined. The human HPAC pancreatic cancer cells were seeded and allowed to attach for 24 hours. Then cells were treated with different concentrations of LLL12B for approximate 24 hours and the cell migration was determined by wound healing assay.

[2] = tested on: medulloblastoma cells; conditions: refs [25,31]; cited from earlier work
[3] = tested on: ovarian cancer cells; conditions: ref [45]; cited from earlier work
[4] = tested on: ERK; experiment: EGF induced ERK phosphorylation, Western blot, MDA-MB-231 cells; assay type: cell-based, human; conditions: pretreated 2 hours, 50 ng/ml EGF 30 minutes
Description: (A) The chemical structures of LLL12B and LLL12. The carbamate ester bond of LLL12B is hydrolytically cleaved by the tumor-associated plasmin to release LLL12. (B) SUM159 cells were seeded in a 6-well plate and treated with LLL12B for 8 hours. Cells were stained with Phospho-Stat3 (Tyr705) and DAPI (indicated by arrows). Green: P-STAT3 (Y705); Blue: DAPI. T47D (C) and MDA-MB-231 (D) breast cancer cells were pretreated with DMSO or LLL12B in a serum-free medium for 2 hours and stimulated with 50 ng/ml of IL-6, IFN-γ, or EGF for additional 30 minutes. Cells were collected and analyzed by Western blot. GAPDH served as a protein loading control.
Western blot. Cells were collected and total protein was extracted using cell lysis buffer (Cell Signaling Technology, Danvers, MA, USA). Protein concentration was determined using the Pierce BCA Protein Assay Kit (Thermo Fisher Scientific, Waltham, MA, USA) according to the manufacturer's instructions. Equal amounts of protein were separated by 10% SDS-PAGE gels and transferred to PVDF membranes. Membranes were blocked in 5% non-fat milk at room temperature and probed with specific antibodies P-STAT3 (Y705), STAT3, Cyclin D1, Cleaved Caspase-3, P-STAT1 (Y701), STAT1, P-ERK, ERK or GAPDH (1:1000, Cell Signaling Technology, Danvers, MA, USA) at 4° C. overnight. […]

[5] = tested on: PANC-1 cells; experiment: MTT cell viability assay, PANC-1 cells; assay type: cell-based, human; conditions: PANC-1, 3 days
Description: The human pancreatic cancer cell lines HPAC and PANC-1 were seeded and allowed to attach for 24 hours. Then cells were treated with different concentrations of LLL12B for 3 days and the cell viability was determined by MTT cell viability assay.

[6] = tested on: STAT3; experiment: Western blot of P-STAT3 (Y705), STAT3, Cyclin D1, Cleaved Caspase-3 in MDA-MB-231 cells; assay type: cell-based, human; conditions: MDA-MB-231, overnight
Description: (A) MDA-MB-231, SUM159, and 4T1 cell lines were treated with DMSO or LLL12B overnight and the expression levels of P-STAT3 (Y705), STAT3, Cyclin D1, and Cleaved Caspase-3 were analyzed by Western blot. GAPDH served as a protein loading control. (B) MDA-MB-231 cells were treated with DMSO or C188-9 overnight and the expression levels of P-STAT3 (Y705), STAT3, Cyclin D1, and Cleaved Caspase-3 were analyzed by Western blot. (C) MDA-MB-231, SUM159, and 4T1 cells were seeded in a 96-well plate and treated with DMSO or LLL12B for 5 hours and a Caspase-3/7 Fluorescence Assay Kit was used to detect the activation of caspase-3/7. (D) MDA-MB-231, SUM159, and 4T1 cell lines were treated with DMSO or LLL12B for 8-12 hours, and flow cytometry was performed to analyze annexin V and PI staining. The quantification of apoptotic cells was shown in the right panel. ** P<0.01, *** P<0.001 and ****P<0.0001.
SiRNA and transfection. STAT3 siRNA and Negative Control siRNA (Cell Signaling Technology, Danvers, MA, USA) were used to knock down STAT3 in MDA-MB-231, SUM159, and 4T1 cell lines. Cells were transfected with STAT3 siRNA or Negative Control siRNA using Lipofectamine RNAiMAX (Invitrogen, Carlsbad, CA, USA) according to the manufacturer's instructions. After 72 hours, cell viability was examined by MTT cell viability assay, and the transfection efficiency was examined by western blot.
Western blot. Cells were collected and total protein was extracted using cell lysis buffer (Cell Signaling Technology, Danvers, MA, USA). Protein concentration was determined using the Pierce BCA Protein Assay Kit (Thermo Fisher Scientific, Waltham, MA, USA) according to the manufacturer's instructions. Equal amounts of protein were separated by 10% SDS-PAGE gels and transferred to PVDF membranes. Membranes were blocked in 5% non-fat milk at room temperature and probed with specific antibodies P-STAT3 (Y705), STAT3, Cyclin D1, Cleaved Caspase-3, P-STAT1 (Y701), STAT1, P-ERK, ERK or GAPDH (1:1000, Cell Signaling Technology, Danvers, MA, USA) at 4° C. overnight. The blots were visualized using SuperSignal™ West Femto Maximum Sensitivity Substrate (Thermo Fisher Scientific, Waltham, MA, USA) and an Amersham Imager 680 (GE Healthcare Life Sciences, Marlborough, MA, USA) after incubating with horseradish peroxidase (HRP)-conjugated anti-rabbit secondary antibody (1:5000, Cell Signaling Technology, Danvers, MA, USA).

CN(C)C(=O)Oc1cccc2c1C(=O)c1cccc(S(N)(=O)=O)c1C2=O [LLL12B]
cell migration [1]: significantly inhibits
apoptosis [2]: induced apoptosis
tumor growth [2]: suppressed tumor growth
sensitization to paclitaxel and cisplatin [3]: sensitized
inhibition of P-ERK stimulated by EGF [4]: little effect
cell viability [5]: significantly inhibits
concentration that inhibited P-STAT3 and Cyclin D1 in Western blot [6]: 1 µM
Cyclin D1 expression ([6]; vs DMSO): decreased
expression of Cleaved Caspase-3 ([6]; vs DMSO): enhanced
phosphorylation of STAT3 ([6]; vs DMSO): decreased
